We go through nine compounds from patent US20240165196A1, “Beta-Lactamase Inhibitors” (VIB VZW, priority 2021, published 2024).

Common to all, as to format: cell-based
For one assay, the system named is E. coli TEM-1 ?
The procedure: (§1) Beta-lactamase clinical samples were collected from University Hospitals Leuven and tested for ESBL production using the disk diffusion method^61. The beta-lactamase reference isolates were purchased from IHMA International Health management associates. Bacterial strains were cultivated in Mueller Hinton Broth (MHB, Difco) at 37° C. Whenever required growth media were supplemented with appropriate antibiotic to the medium or plates (kanamycin 30 μg/mL, L-arabinose 0.5 mg/mL, and IPTG 1 mM/mL). Escherichia coli BL21 (Thermo Fisher Scientific, Belgium) was used for cloning and plasmid amplification. For selection of antibiotic resistance colonies, E. coli carrying plasmids was grown in LB agar plates supplemented with the relevant antibiotic. Bacterial CFU counting was done on blood agar plates (BD Biosciences, Belgium) or MHA agar plates. Species identification and antibiograms for all clinical isolates were performed using MALDI-Tof and VITEK® 2 automated system (BioMérieux, France).

The subject of the next assay is E. coli TEM-30. The procedure: as §1
A further assay concerns E. coli TEM-148. The procedure: as §1; as to Interpretation: key: S, susceptible; I, intermediate; R, resistant
A further assay relates to E. coli TEM-104. The procedure:
as §1

For a further assay, the system named is E. coli TEM-206. Nature of the assay: antimicrobial susceptibility testing, VITEK 2 AST Cards. The procedure:
as §1

The test system of the next assay is E. coli SH ? (APHA). Described as above. The procedure: as §1
The next assay relates to E. coli NDM ? a. Described as above. The procedure:
as §1

The test system of a further assay is E. coli NDM ? b. The description is as above. The procedure:
as §1

In brackets after ≈: the same amount, converted by molar mass.
For Interpretation in this document: key: S, susceptible; I, intermediate; R, resistant.

Take `C[C@@H](O)[C@H]1C(=O)N2C(C(=O)O)=C(S[C@@H]3CN[C@H](C(=O)N(C)C)C3)[C@H](C)[C@H]12` [Meropen ? m]: the Interpretation result in the assay with E. coli TEM-1 ?, in the assay with E. coli TEM-30, with E. coli TEM-148, in the assay on E. coli TEM-104, in the assay on E. coli TEM-206 and in the assay on E. coli SH ? (APHA) was “S” in each case. The Interpretation entry was “R” with E. coli NDM ? a and “I” with E. coli NDM ? b. The MIC – broadly, the least concentration at which growth counts as inhibited – is ≤ 0.25 µg/mL against E. coli TEM-1 ?; ≤ 0.25 µg/mL against E. coli TEM-30; ≤ 0.25 µg/mL with E. coli TEM-148; ≤ 0.25 µg/mL against E. coli TEM-206; ≤ 0.25 µg/mL in the assay with E. coli SH ? (APHA); ≥ 16 µg/mL in the assay with E. coli NDM ? a. This compound also yielded an MIC in the assay on E. coli NDM ? b of 8 µg/mL (≈ 20.9 µM).

Consider Gentamicin, for which the Interpretation entry in the assay with E. coli TEM-1 ? is “S”; in the assay with E. coli TEM-30, “R”; with E. coli TEM-148, “S”; in the assay with E. coli TEM-104 it was “S”; in the assay with E. coli TEM-206, “S”; with E. coli SH ? (APHA) it was “R”. In addition, the Interpretation result with E. coli NDM ? a is reported as “R”; with E. coli NDM ? b, “S”. Moreover, the MIC is ≤ 1 µg/mL against E. coli TEM-1 ?; ≥ 16 µg/mL against E. coli TEM-30; ≤ 1 µg/mL in the assay with E. coli TEM-148; ≤ 1 µg/mL in the assay with E. coli TEM-104; ≤ 1 µg/mL with E. coli TEM-206; ≥ 16 µg/mL against E. coli NDM ? a. In the assay with E. coli NDM ? b, the minimum inhibitory concentration (MIC) was ≤ 1 µg/mL.

As to `NCC[C@H](O)C(=O)N[C@@H]1C[C@H](N)[C@@H](O[C@H]2O[C@H](CN)[C@@H](O)[C@H](O)[C@H]2O)[C@H](O)[C@H]1O[C@H]1O[C@H](CO)[C@@H](O)[C@H](N)[C@H]1O` [Amikacin], the Interpretation result with E. coli TEM-1 ?, in the assay on E. coli TEM-148, in the assay with E. coli TEM-104, with E. coli TEM-206, in the assay with E. coli SH ? (APHA) and in the assay on E. coli NDM ? a was “S” in each case. Besides, the Interpretation result in the assay on E. coli NDM ? b is “S”. The MIC against E. coli TEM-1 ?, in the assay with E. coli TEM-148, with E. coli TEM-104 and in the assay with E. coli TEM-206 was ≤ 2 µg/mL in each case.

Turning to `CO/N=C(\C(=O)N[C@@H]1C(=O)N2C(C(=O)OC(C)OC(C)=O)=C(COC(N)=O)CS[C@H]12)c1ccco1` (stereo partly drawn), the Interpretation result in the assay with E. coli TEM-1 ? is “R”; with E. coli TEM-30 it was “R”; with E. coli TEM-148 it was “R”; in the assay on E. coli TEM-104, “S”; with E. coli TEM-206 it was “R”; in the assay with E. coli SH ? (APHA), “R”. Besides, the Interpretation entry with E. coli NDM ? a and in the assay with E. coli NDM ? b was “R” throughout. The minimum inhibitory concentration (MIC) against E. coli TEM-1 ? is ≥ 64 µg/mL; with E. coli TEM-30, ≥ 64 µg/mL; in the assay with E. coli TEM-148, ≥ 64 µg/mL; with E. coli TEM-104, 4 µg/mL (≈ 7.84 µM); in the assay on E. coli TEM-206 it was ≥ 64 µg/mL; against E. coli NDM ? a it was ≥ 64 µg/mL. Besides, the minimum inhibitory concentration (MIC) in the assay with E. coli NDM ? b was ≥ 64 µg/mL.

`CN(C)c1cc(NC(=O)CNC(C)(C)C)c(O)c2c1C[C@H]1C[C@H]3[C@H](N(C)C)C(O)=C(C(N)=O)C(=O)[C@@]3(O)C(O)=C1C2=O` [Tig ? cycline]: in the assay with E. coli SH ? (APHA), the Interpretation entry is “S”.

As to `NC[C@H]1O[C@H](O[C@H]2[C@H](O)[C@@H](O[C@H]3O[C@H](CO)[C@@H](O)[C@H](N)[C@H]3O)[C@H](N)C[C@@H]2N)[C@H](N)C[C@@H]1O` [Tobramycin], the Interpretation entry in the assay on E. coli TEM-1 ?, in the assay on E. coli TEM-148, in the assay on E. coli TEM-104, in the assay on E. coli TEM-206 and in the assay with E. coli NDM ? b was “S” each time. Also, the MIC against E. coli TEM-1 ?, against E. coli TEM-148, with E. coli TEM-104 and with E. coli TEM-206 was ≤ 1 µg/mL throughout.

As to `C[C@H]1COc2c(N3CCN(C)CC3)c(F)cc3c(=O)c(C(=O)O)cn1c23` [Levofloxacin], the Interpretation result in the assay with E. coli TEM-206 is recorded as “R”; with E. coli SH ? (APHA), “S”.

Take `CO[C@@]1(NC(=O)C(C(=O)O)c2ccsc2)C(=O)N2[C@@H](C(=O)O)C(C)(C)S[C@@H]21` (stereo partly drawn) [T ? cillin]: the Interpretation entry in the assay with E. coli TEM-206 is listed as “S”.

In the case of `CO[C@@]1(NC(=O)Cc2cccs2)C(=O)N2C(C(=O)O)=C(COC(N)=O)CS[C@@H]21` [C ? tin], the Interpretation result in the assay with E. coli TEM-1 ? and with E. coli TEM-206 was “S” each time. Further, the MIC with E. coli TEM-206 is ≤ 4 µg/mL.
